# Measurements from patent US4690919A, “Benzoxazinorifamycin derivative, process for preparing the same and antibacterial agent containing the same” (Kanegafuchi Kagaku Kogyo Kabushiki Kaisha, priority 1985, dated 1987).
# Tests used:
# [1] = test system: Bacillus subtilis IFO 3134; assay: Antibacterial activity (MIC), standard method of Japan Society of Chemotherapy; format: cell-based; settings: IFO3134; Bacillus subtilis IFO 3134; read-out: minimum inhibitory concentration (MIC)
# From the text: (§1) The results obtained from the typical compounds are shown in Table 2 as the minimum inhibitory concentration (MIC, μg/ml). […] In Table 2, Test compound No. corresponds to derivative No. in Table 1.
# [2] = test system: Escherichia coli IFO 12734; assay: as above; format: cell-based; settings: IFO12734, read-out: minimum inhibitory concentration (MIC)
# From the text: as §1
# [3] = test system: Klebsiella pneumoniae IFO 3512; assay: as above; format: cell-based; settings: IFO3512; Klebsiella pneumoniae IFO 3512; read-out: minimum inhibitory concentration (MIC)
# From the text: as §1
# [4] = test system: Micrococcus luteus IFO 12708; assay: as above; format: cell-based; settings: IFO12708; Micrococcus luteus IFO 12708; read-out: minimum inhibitory concentration (MIC)
# From the text: as §1
# [5] = test system: Mycobacterium smegmatis ATCC 607; assay: as above; format: cell-based; settings: Mycolicibacterium smegmatis, ATCC607; Mycobacterium smegmatis ATCC 607; read-out: minimum inhibitory concentration (MIC)
# From the text: as §1
# [6] = test system: Staphylococcus aureus IFO 12732; assay: as above; format: cell-based; settings: IFO12732; Staphylococcus aureus IFO 12732; read-out: minimum inhibitory concentration (MIC)
# From the text: as §1
# [7] = Concentration in serum after oral administration to rats; settings: rat, 20 mg/kg
SMILES,MIC [1] [µg/mL],MIC [2] [µg/mL],MIC [3] [µg/mL],MIC [4] [µg/mL],MIC [5] [µg/mL],MIC [6] [µg/mL],concentration at 1 h [7] [ng/mL],concentration at 3 h [7] [ng/mL],concentration at 5 h [7] [ng/mL]
CCN(CC)c1ccc2nc3c4c5c6c(C)c(O)c4c(=O)c(c-3oc2c1)NC(=O)C(C)=CC=CC(C)C(O)C(C)C(O)C(C)C(OC(C)=O)C(C)C(OC)C=COC(C)(O6)C5=O (stereo not drawn) [compound 3],≤ 0.02,2.5,5,≤ 0.02,1.25,≤ 0.02,1800,3300,1300
CCOCCN(CCOCC)c1ccc2nc3c4c5c6c(C)c(O)c4c(=O)c(c-3oc2c1)NC(=O)C(C)=CC=CC(C)C(O)C(C)C(O)C(C)C(OC(C)=O)C(C)C(OC)C=COC(C)(O6)C5=O (stereo not drawn) [compound 9],≤ 0.02,5,10,≤ 0.02,1.25,≤ 0.02,2100,5400,1800
CCCN(CCC)c1ccc2nc3c4c5c6c(C)c(O)c4c(=O)c(c-3oc2c1)NC(=O)C(C)=CC=CC(C)C(O)C(C)C(O)C(C)C(OC(C)=O)C(C)C(OC)C=COC(C)(O6)C5=O (stereo not drawn) [compound 4],0.08,> 10,> 10,≤ 0.02,1.25,≤ 0.02,2000,8500,2100
COC1C=COC2(C)Oc3c(C)c(O)c4c(=O)c(c5oc6cc(N7CCCC7)ccc6nc-5c4c3C2=O)NC(=O)C(C)=CC=CC(C)C(O)C(C)C(O)C(C)C(OC(C)=O)C1C (stereo not drawn) [compound 18],≤ 0.02,2.5,5,≤ 0.02,1.25,≤ 0.02,2300,4900,3400
CCN(C)c1ccc2nc3c4c5c6c(C)c(O)c4c(=O)c(c-3oc2c1)NC(=O)C(C)=CC=CC(C)C(O)C(C)C(O)C(C)C(OC(C)=O)C(C)C(OC)C=COC(C)(O6)C5=O (stereo not drawn) [compound 2],0.04,1.25,2.5,≤ 0.02,1.25,≤ 0.02,3000,5400,3000

# The remaining lines, values ahead:
MIC [1] [µg/mL],MIC [2] [µg/mL],MIC [3] [µg/mL],MIC [4] [µg/mL],MIC [5] [µg/mL],MIC [6] [µg/mL],concentration at 1 h [7] [ng/mL],concentration at 3 h [7] [ng/mL],concentration at 5 h [7] [ng/mL],SMILES
0.04,2.5,10,≤ 0.02,1.25,≤ 0.02,–,–,–,COC1C=COC2(C)Oc3c(C)c(O)c4c(=O)c(c5oc6cc(N7CCSCC7)ccc6nc-5c4c3C2=O)NC(=O)C(C)=CC=CC(C)C(O)C(C)C(O)C(C)C(OC(C)=O)C1C (stereo not drawn) [compound 45]
≤ 0.02,> 10,> 10,≤ 0.02,1.25,≤ 0.02,–,–,–,COC1C=COC2(C)Oc3c(C)c(O)c4c(=O)c(c5oc6cc(N7CCC(C)CC7)ccc6nc-5c4c3C2=O)NC(=O)C(C)=CC=CC(C)C(O)C(C)C(O)C(C)C(OC(C)=O)C1C (stereo not drawn) [compound 24]
≤ 0.02,> 10,> 10,≤ 0.02,1.25,≤ 0.02,1800,6400,1700,COC1C=COC2(C)Oc3c(C)c(O)c4c(=O)c(c5oc6cc(N7CCCC(C)(C)C7)ccc6nc-5c4c3C2=O)NC(=O)C(C)=CC=CC(C)C(O)C(C)C(O)C(C)C(OC(C)=O)C1C (stereo not drawn) [compound 27]
≤ 0.02,1.25,5,≤ 0.02,1.25,≤ 0.02,2700,3500,2800,COC1C=COC2(C)Oc3c(C)c(O)c4c(=O)c(c5oc6cc(N7CCCC7)ccc6nc-5c4c3C2=O)NC(=O)C(C)=CC=CC(C)C(O)C(C)C(O)C(C)C(O)C1C (stereo not drawn) [compound 49]
0.04,1.25,> 10,≤ 0.02,1.25,0.08,3200,5700,4900,COC1C=COC2(C)Oc3c(C)c(O)c4c(=O)c(c5oc6cc(N7CCCCCC7)ccc6nc-5c4c3C2=O)NC(=O)C(C)=CC=CC(C)C(O)C(C)C(O)C(C)C(OC(C)=O)C1C (stereo not drawn) [compound 20]
≤ 0.02,2.5,> 10,≤ 0.02,1.25,0.08,–,–,–,COC1C=COC2(C)Oc3c(C)c(O)c4c(=O)c(c5oc6cc(N7CC=CCC7)ccc6nc-5c4c3C2=O)NC(=O)C(C)=CC=CC(C)C(O)C(C)C(O)C(C)C(OC(C)=O)C1C (stereo not drawn) [compound 37]
